Data as given in patent US20080038335A1, “METHOD, FORMULATION, AND USE THEREOF FOR IMPROVED ORAL ABSORPTION OF PHARMACEUTICALS OR NUTRIENTS” (SHANGHAI TIANBO BIOTECHNOLOGY CO., LTD., priority 2005, published 2008).

Legend:
[1] = oral, Dong et al. 2003; cited from earlier work
[2] = Solubility in 90% ethanol (Chinese Pharmacopeia method); assay type: physicochemical; details: 25° C.±2° C., observed at 30 minutes
Procedure: The solution is observed at 30 minutes, and it is defined as complete dissolution when no solute particles or droplets are noticed.
• 1. Dissolve ginsenoside Rg3 in ethanol. • 100 mg test ginsenoside Rg3 was added to 100 ml of 90% ethanol at 25° C.±2° C., and forcefully shaken for 30 seconds every 5 minutes. […] Preparation of Rg3 solution in ethanol. • The ginsenoside Rg3-ethanol solution is prepared according to Rg3's solubility, and this solution will be used to determine the percentage of polyoxyethylene hydrogenated castor oil in formulation. • 3. Establishment of artificial gastric and intestinal environments. • The artificial gastric and intestinal fluids are prepared in accordance to experimental example 2. • 4. Determination of the proportion of protectant polyoxyethylene hydrogenated castor oil (Cremophor RH40) in ginsenoside Rg3-ethanol solution. • Polyoxyethylene hydrogenated castor oil (Cremophor RH40) at different proportions, from 5%-90%, is added to 100 ml ginsenoside Rg3-ethanol solution, and then the mixture is subjected to artificial gastric or intestinal fluids for stability test. […] The highest proportion as determined, i.e., 50% or 175 mg is adopted for drug preparation. • 5. […]
• 1. […] The highest proportion as determined, i.e., 40% or 150 mg is adopted for drug preparation. • 5. […]

SMILES	absorption rate from the GI tract [1]	Amount completely dissolved in 100 ml 90% ethanol [2]
CC(C)=CCC[C@](C)(O[C@@H]1O[C@H](CO[C@@H]2O[C@H](CO)[C@@H](O)[C@H](O)[C@H]2O)[C@@H](O)[C@H](O)[C@H]1O)[C@H]1CC[C@]2(C)[C@@H]1[C@H](O)C[C@@H]1[C@@]3(C)CC[C@H](O[C@@H]4O[C@H](CO)[C@@H](O)[C@H](O)[C@H]4O[C@@H]4O[C@H](CO)[C@@H](O)[C@H](O)[C@H]4O)C(C)(C)[C@@H]3CC[C@]12C [Rb1]	1%	–
CC(C)=CCC[C@](C)(O[C@@H]1O[C@H](CO)[C@@H](O)[C@H](O)[C@H]1O)[C@H]1CC[C@]2(C)[C@@H]1[C@H](O)C[C@@H]1[C@@]3(C)CC[C@H](O)C(C)(C)[C@@H]3[C@@H](O[C@@H]3O[C@H](CO)[C@@H](O)[C@H](O)[C@H]3O)C[C@]12C [Rg1, ginsenoside Rg1]	1.9%	–
CC(C)=CCC[C@](C)(O)[C@H]1CC[C@]2(C)[C@@H]1[C@H](O)C[C@@H]1[C@@]3(C)CC[C@H](O[C@@H]4O[C@H](CO)[C@@H](O)[C@H](O)[C@H]4O[C@@H]4O[C@H](CO)[C@@H](O)[C@H](O)[C@H]4O)C(C)(C)[C@@H]3CC[C@]12C [Rg3, ginsenoside Rg3]	–	100 mg
CC(C)=CCC[C@](C)(O)[C@H]1CC[C@]2(C)[C@@H]1[C@H](O)C[C@@H]1[C@@]3(C)CC[C@H](O[C@@H]4O[C@H](CO)[C@@H](O)[C@H](O)[C@H]4O)C(C)(C)[C@@H]3CC[C@]12C [Rh2, ginsenoside Rh2]	3.4%	–
CC(C)=CCC[C@@](C)(O)[C@H]1CC[C@]2(C)[C@@H]1[C@H](O)C[C@@H]1[C@@]3(C)CC[C@H](O)C(C)(C)[C@@H]3CC[C@]12C [aPPD, protopanoxadiol sapogenin aPPD]	–	40 mg
